Data published in US11007183B2, “Cancer treatments using combinations of PI3K/Akt pathway and ERK inhibitors” (BIOMED VALLEY DISCOVERIES, INC., priority 2013, dated 2021).
“And” between values parts separate entries of the source, which are not always exact repeats. Identical values can stand only once.

Tests used:
HCT116 PIK3CA (+/−) = experiment: Single agent proliferation assay (CellTiter-Glo, 72 h); assay type: cell-based, human
Method: Cells were seeded in 96-well plates at the densities and media conditions indicated in Table 11 in McCoy's 5A containing either 10% FBS or 1% charcoal-stripped FBS (CS-FBS), and allowed to adhere overnight prior to addition of compound or vehicle control. […] The final DMSO concentration was constant at 0.1%. Test compounds were incubated with the cells for 72 h at 37° C., 5% CO2 in a humidified atmosphere. CellTiter-Glo® reagent (Promega, Madison, Wis.) was added according to manufacturer's instructions and luminescence detected using the BMG FLUOstar plate reader (BMG Labtech, Ortenberg, Germany). The average media only background value was deducted and the data analysed using a 4-parameter logistic equation in GraphPad Prism (GraphPad Software, La Jolla, Calif.).

HCT116 Parental = experiment: as above; assay type: cell-based, human
Method: Cells were seeded in 96-well plates at the densities and media conditions indicated in Table 11 in McCoy's 5A containing either 10% FBS or 1% charcoal-stripped FBS (CS-FBS), and allowed to adhere overnight prior to addition of compound or vehicle control. Compounds were prepared from DMSO stocks to give the desired final concentrations. The final DMSO concentration was constant at 0.1%. Test compounds were incubated with the cells for 72 h at 37° C., 5% CO2 in a humidified atmosphere. CellTiter-Glo® reagent (Promega, Madison, Wis.) was added according to manufacturer's instructions and luminescence detected using the BMG FLUOstar plate reader (BMG Labtech, Ortenberg, Germany). The average media only background value was deducted and the data analysed using a 4-parameter logistic equation in GraphPad Prism (GraphPad Software, La Jolla, Calif.).

[1] = Toxicity (body weight, deaths, clinical signs) in the HCT116 xenograft study; assay type: in vivo, mice; settings: Group 10: Paclitaxel 30 mg/kg iv qod x 5
Method: Animals were weighed daily on Days 1-5, then twice per week until completion of the study. The mice were observed frequently for overt signs of any adverse, TR side effects, and clinical signs were recorded when observed. Individual BW loss was monitored as per protocol, and any animal whose weight exceeded the limits for acceptable BW loss was euthanized. Group mean BW loss also was monitored as per protocol. Dosing was to be suspended in any group that exceeded the limits for acceptable mean BW loss. If mean BW recovered, then dosing was to be resumed in that group, but at a lower dosage or less frequent dosing schedule. Acceptable toxicity for the maximum tolerated dose (MTD) was defined as a group mean BW loss of less than 20% during the study and not more than 10% TR deaths. A death was classified as TR if attributable to treatment side effects as evidenced by clinical signs and/or necropsy, or may also be classified as TR if due to unknown causes during the dosing period or within 14 days of the last dose. A death was classified as NTR if there was no evidence that death was related to treatment side effects. NTR deaths may be further characterized based on cause of death. A death was classified as NTRa if it resulted from an accident or human error. […] A death was classified as NTRu if the cause of death was unknown and there was no available evidence of death related to treatment side effects, metastasis, accident or human error, although death due to treatment side effects cannot be excluded.

[2] = test system: HCT116 human colorectal carcinoma xenograft; experiment: HCT116 xenograft tumor growth delay (TGD) study; assay type: in vivo, mice
Method: Female athymic nude mice (Crl:NU(Ncr)-Foxn1^nu, Charles River) were eight weeks old with a body weight (BW) range of 14.6 to 25.7 grams on Day 1 of the study. The animals were fed ad libitum water (reverse osmosis, 1 ppm Cl), and NIH 31 Modified and Irradiated Lab Diet® consisting of 18.0% crude protein, 5.0% crude fat, and 5.0% crude fiber. The mice were housed on irradiated Enrich-O'Cobs™ Laboratory Animal Bedding in static microisolators on a 12-hour light cycle at 20-22° C. (68-72° F.) and 40-60% humidity.
HCT116 human colon carcinoma cells were cultured in RPMI-1640 medium supplemented with 10% fetal bovine serum, 2 mM glutamine, 100 units/mL penicillin G sodium, 100 μg/mL streptomycin sulfate, and 25 μg/mL gentamicin. The tumor cells were grown in tissue culture flasks in a humidified incubator at 37° C., in an atmosphere of 5% CO2 and 95% air.
The HCT116 cells used for implantation were harvested during exponential growth and resuspended in 50% Matrigel (BD Biosciences): 50% phosphate buffered saline at a concentration of 2.5×10^7 cells/mL. On the day of tumor implant, each test mouse was injected subcutaneously in the right flank with 5×10^6 cells (0.2 mL cell suspension), and tumor growth was monitored as the average size approached the target range of 100 to 150 mm^3. Tumors were measured in two dimensions using calipers, and volume was calculated using the formula: Tumor Volume (mm^3)=(w^2×l)/2 where w=width and l=length, in mm, of the tumor. Tumor weight may be estimated with the assumption that 1 mg is equivalent to 1 mm^3 of tumor volume.
Ten days after tumor implantation, designated as Day 1 of the study, the animals were sorted into nine groups (Groups 1-9) each consisting of fifteen mice and one group (Group 10) consisting of ten mice.
BVD-523 doses were prepared by suspending the required amount of BVD-523 powder in 1% carboxymethyl cellulose (CMC) in deionized water (“Vehicle”). A 10 mg/mL BVD-523 stock was prepared, and was used to dose the 100 mg/kg BVD-523 group. Aliquots of the stock were diluted with the vehicle to a concentration of 5.0 mg/mL, which provided a 50 mg/kg BVD-523 dosage in a dosing volume of 10 mL/kg. The BVD-523 doses were stored at 4° C. for up to one week. The 1% CMC vehicle was used to dose the control group.
Paclitaxel (Lot CP2N10007) was purchased as a dry powder from Phyton Biotech, LLC (Fort Worth, Tex.). A paclitaxel stock solution (30 mg/mL) in 50% ethanol: 50% Cremophor EL was prepared and stored at room temperature protected from light during the dosing period. On each day of dosing, an aliquot of the paclitaxel stock was diluted with 5% dextrose in water (D5W) to yield a 3.0 mg/mL paclitaxel dosing solution in a vehicle consisting of 5% ethanol: 5% Cremophor EL: 90% D5W.
On Day 1 of the study, mice were sorted into nine groups (Group 1-9) each consisting of fifteen mice and one group (Group 10) consisting of ten mice, and dosing was initiated according to the treatment plan summarized in Table 4 below. All doses were given by oral gavage (p.o.) except paclitaxel, which was given i.v. For each agent, the dosing volume of 10 mL/kg (0.2 mL per 20 grams of BW) was scaled to the BW of the individual animal. […] For bid dosing, dosing was initiated in the afternoon of Day 1, so that one dose was given on the first day (“first day 1 dose”).
Group 1 received 1% CMC vehicle p.o. bid to end, and served as the control group for calculation of % TGD. Group 10 received paclitaxel i.v. at 30 mg/kg once every other day (qod) for five doses (qod×5), and served as the positive control for the model.
Groups 4 and 5 received 50 and 100 mg/kg BVD-523, respectively, p.o. bid to end.

[3] = test system: HCT116 PIK3CA (+/−) cells; experiment: Combination proliferation assay (Loewe/Bliss); assay type: cell-based, human; settings: Homo sapiens, HCT-116, read-out: IC50 (single agent, derived from combination assay plates)
Method: Test compounds were incubated with the cells for 72 h at 37° C., 5% CO2 in a humidified atmosphere. CellTiter-Glo® reagent (Promega, Madison, Wis.) was added according to manufacturer's instructions and luminescence detected using the BMG FLUOstar plate reader (BMG Labtech, Ortenberg, Germany). The average media only background value was deducted and the data analysed. For the 10×8 combination assays the combination interactions across the dose matrix were determined by the Loewe Additivity and Bliss independence models using ChaliceTM Combination Analysis Software (Horizon Discovery Group, Cambridge, Mass.) as outlined in the user manual (available at chalice.horizondiscovery.com/chalice-portal/documentation/analyzer/home.jsp). Synergy is determined by comparing the experimentally observed level of inhibition at each combination point with the value expected for additivity, which is derived from the single-agent responses along the edges of the matrix. Potential synergistic interactions were identified by displaying the calculated excess inhibition over that predicted as being additive across the dose matrix as a heat map, and by reporting a quantitative 'Synergy Score' based on the Loewe model. The single agent data derived from the combination assay plates were presented as dose-response curves generated in GraphPad Prism (GraphPad Software, La Jolla, Calif.) (plotted using percentage viability relative to DMSO only treated controls). […] (Cbliss is the fractional inhibition that would be expected if the combination of the two drugs were exactly additive). Cbliss values were then subtracted from the experimentally observed fractional inhibition values to give an 'excess over Bliss' value which were plotted as heat maps±SD.

parental HCT116 cells = experiment: Combination proliferation assay (Loewe/Bliss); assay type: cell-based; settings: Homo sapiens, HCT-116, 2.5% serum, mean of n=4 separate combinations, read-out: IC50 (single agent, derived from combination assay plates)
Method: Cells were seeded into triplicate 96-well plates at the densities indicated in Table 11 in McCoy's 5A media containing 2.5% FBS and allowed to adhere overnight prior to addition of test compound or vehicle control. Combinations were tested using either a 10×8 or for the follow-up HCT116 study a 3×1 dose matrix.
Test compounds were incubated with the cells for 72 h at 37° C., 5% CO2 in a humidified atmosphere. CellTiter-Glo® reagent (Promega, Madison, Wis.) was added according to manufacturer's instructions and luminescence detected using the BMG FLUOstar plate reader (BMG Labtech, Ortenberg, Germany). The average media only background value was deducted and the data analysed.
For the 10×8 combination assays the combination interactions across the dose matrix were determined by the Loewe Additivity and Bliss independence models using Chalice™ Combination Analysis Software (Horizon Discovery Group, Cambridge, Mass.) as outlined in the user manual (available at chalice.horizondiscovery.com/chalice-portal/documentation/analyzer/home.jsp). Synergy is determined by comparing the experimentally observed level of inhibition at each combination point with the value expected for additivity, which is derived from the single-agent responses along the edges of the matrix. […]

[4] = Homo sapiens, HCT-116, 72 h, 1% CS-FBS
[5] = Homo sapiens, HCT-116, 72 h, 10% FBS
[6] = Group 1 (vehicle) vs Group 10 (Paclitaxel 30 mg/kg iv qod x 5)
[7] = Group 10: Paclitaxel 30 mg/kg iv qod x 5

Structure (SMILES)	IC50 (HCT116 PIK3CA (+/−); [4])	IC50 (HCT116 PIK3CA (+/−); [5])	IC50 (HCT116 Parental; [4])	IC50 (HCT116 Parental; [5])	also measured
Nc1cc(C(F)(F)F)c(-c2cc(N3CCOCC3)nc(N3CCOCC3)n2)cn1 [BKM120]	1.03 µM	0.52 µM	0.53 µM	0.62 µM	–
CS(=O)(=O)N1CCN(Cc2cc3nc(-c4cccc5[nH]ncc45)nc(N4CCOCC4)c3s2)CC1 [GDC-0941, pictilisib]	–	–	0.06 µM	1.53 µM	–
CC(C)n1nc(-c2ccc3oc(N)nc3c2)c2c(N)ncnc21 [INK128]	0.02 µM	0.07 µM	0.03 µM	0.05 µM	–
COc1ccc(-c2cc3c(C)nc(N)nc3n([C@H]3CC[C@H](OCCO)CC3)c2=O)cn1 [PF-04691502]	–	–	–	–	IC50 (HCT116 PIK3CA (+/−); 1% CS-FBS): 1.54 µM; IC50 (HCT116 PIK3CA (+/−); 10% FBS): 0.42 µM; IC50 (HCT116 Parental; 1% CS-FBS): 0.07 µM; IC50 (HCT116 Parental; 10% FBS): 0.29 µM
CC(=O)O[C@H]1C(=O)[C@@]2(C)[C@H]([C@H](OC(=O)c3ccccc3)[C@]3(O)C[C@H](OC(=O)[C@H](O)[C@@H](NC(=O)c4ccccc4)c4ccccc4)C(C)=C1C3(C)C)[C@]1(OC(C)=O)CO[C@@H]1C[C@@H]2O [Paclitaxel, reference compound]	0.003 µM	0.002 µM	0.003 µM	0.002 µM	Deaths NTR [1]: 0; Deaths TR [1]: 0; Are survival curves diff.? [2, 6]: Yes; Logrank test Chi square [2, 6]: 24.03; % TGD [2, 7]: 38%; MTV (n): number of animals on D 45 (45-day survivors) [2, 7]: (10); MTV D 45 (median tumor volume) [2, 7]: 688 mm^3; Median TTE [2, 7]: 45.0 days; Regressions CR [2, 7]: 0; Regressions PR [2, 7]: 8/10 and 8; Regressions TFS [2, 7]: 0; T − C [2, 7]: 12.3 days
O=C(Nc1ccc2[nH]nc(-c3ccncc3)c2c1)[C@@H]1CCN(CC(=O)N2CCN(c3ccc(-c4ncccn4)cc3)CC2)C1 [SCH772984]	0.01 µM	0.08 µM	0.03 µM	0.14 µM	IC50 [3]: 0.03 µM; IC50 (parental HCT116 cells): 0.21 µM
